Experiments:
Type in all cases: cell-based
UKE1 = assay: ELISA of secreted pro-collagen I alpha 1 (Type I Collagen) from human dermal fibroblasts UKE1
Procedure: (§1) Compounds reconstitution and stock solution: Prior to treatment, DMSO was diluted in PMS until 0,1% DMSO was made. Each compound was solved in 0,1% DMSO (3: 2,5 mg/mL, 1: 2.5 mg/mL, 10: 1 mg/mL, 5: 1mg/mL, 7: 0,6 mg/mL, 16: 1 mg/mL 17: 1 mg/mL, 44: 0,6 mg/mL, 36: 1mg/mL.
(§2) Next the different stock solution with 150 µg and 250 µg of each compound per 1 ml culture solution was made by adding the 0,1% DMSO compound solution in the right amount to culture solution (DMEM with 10% FCS and 1% penicillin-streptomycin).
(§3) Three different cell lines were used for the experiments. GM637 is an immortalized cell line originated from human skin fibroblasts, bought in 2001, UKE1 and […] are cell lines originated from human dermal fibroblasts (dog ear) nurtured from patients, between 60 and 80 years old being completely anonymized at the clinic for dermatology, Rostock.
(§4) The cells lines were thawed and were cultured in Dulbeco's modified Eagel's medium (DMEM, Gibcon, USA) supplemented with 10% fetal bovine serum (FBS, Gibco, Germany) and 1% penicillin-streptomycin (PS, Gibco, USA) at 37 °C in a humidified atmosphere with 5% CO2 until a sufficient number of cells were culture in T75 culture bottles. After reaching a confluence of 80% to 90%, the cells were separated using trypsin and counted. Next 100.000 cells were planted in each well of a 6 well plate in replicates, washed and the DMEM solution with 150 µg and 250 µg/ml substance/DMEM and DMEM with no substance as control was added.
(§5) After 48h and after 72h 100 µl supernatant of each well was taken, labelled and frozen at -20° degree Celsius. Prior to perform ELISA the medium was depending on the cell line diluted 1:50 or 1:100 with PBS, otherwise the concentration of collagen fibers was too high to be measured.
(§6) The media containing the secretion of the different human dermal fibroblasts GM637, UKE1, and HRO159N were collected after 48h and 72h treatment. Secretion of pro-collagen 1 was assessed with human pro-collagen I alpha 1 DuoSet ELISA (R&D systems, USA) To prepare the Elisa plate, Human pro-Collagen I a capture antibody was diluted in ELISA plate-coating buffer at 4µg/mL working concentration. 100 µl of diluted Capture antibody was added to 96-well microplates and incubated over night at room temperature. After three times washing with Wash Buffer, microplates were blocked by adding 300 µl of Reagent Diluent for 1 hour at room temperature. To proceed the ELISA Human pro-collagen I α1 Standards were diluted in Reagent Diluent (range between 31,3 pg/mL - 2000 pg/mL) and 100 µl of standards or conditioned mediums were added to designated wells. Microplates were incubated at room temperature for 2 hours. Human Pro-collagen I α1 Detection Antibody was prepared in Reagent Diluent at […] working concentration and 100 µl of diluted Detection Antibody was applied for 2 hours at room temperature after extensive washing. Then, working solution of Streptavidin-HRP with Reagent Diluent was prepared by diluting 1:40 and added into each well. After 20 minutes at room temperature incubation, microplates were washed and applied with 100 µl of Substrate Solution for 20 minutes followed by Stop Solution after washing. Finally, signals were measured at 450 nm absorbance by PHomo Microplate Reader (Autobio, China) The amount of pro-collagen 1 was quantified by extrapolating the signal into a linear range of a pro-collagen 1 standard curve. Screening compounds were typically tested at concentration of 150 and 250 µg/mL. The dose response data for each compound and the different cell lines were obtained by nonlinear regression analysis using Prism 9 software (GraphPad, La Jolla, USA).

GM637 = assay: ELISA of secreted pro-collagen I alpha 1 (Type I Collagen) from human dermal fibroblasts GM637
Procedure: as §1, §2, §3, §4, §5, §6

HRO159N = assay: ELISA of secreted pro-collagen I alpha 1 (Type I Collagen) from human dermal fibroblasts HRO159N; settings: 250 µg
Procedure: as §1, §2, §3, §4, §5, §6

MRCVI = assay: ELISA of secreted pro-collagen I alpha 1 (Type I Collagen) from human lung fibroblast MRCVI
Procedure: as §1, §2
As cell line MRCV1 was used, which is an immortalized cell line originated from human lung fibroblast, bought in 2001.
as §4, with “cell line was” for “cells lines were”, “and” for “and were”
as §5
The medium containing the secretion of the human lung fibroblast MRCVI was collected after 48h and 72h treatment. Secretion of pro-collagen 1 was assessed with human pro-collagen I alpha 1 DuoSet ELISA (R&D systems, USA) To prepare the Elisa plate, Human pro-Collagen I a capture antibody was diluted in ELISA plate-coating buffer at 4µg/mL working concentration. 100 µl of diluted Capture antibody was added to 96-well microplates and incubated over night at room temperature. After three times washing with Wash Buffer, microplates were blocked by adding 300 µl of Reagent Diluent for 1 hour at room temperature. To proceed the ELISA Human pro-collagen I α1 Standards were diluted in Reagent Diluent (range between 31,3 pg/mL - 2000 pg/mL) and 100 µl of standards or conditioned mediums were added to designated wells. Microplates were incubated at room temperature for 2 hours. Human Pro-collagen I α1 Detection Antibody was prepared in Reagent Diluent at […] working concentration and 100 µl of diluted Detection Antibody was applied for 2 hours at room temperature after extensive washing. Then, working solution of Streptavidin-HRP with Reagent Diluent was prepared by diluting 1:40 and added into each well. After 20 minutes at room temperature incubation, microplates were washed and applied with 100 µl of Substrate Solution for 20 minutes followed by Stop Solution after washing. Finally, signals were measured at 450 nm absorbance by PHomo Microplate Reader (Autobio, China) The amount of pro-collagen 1 was quantified by extrapolating the signal into a linear range of a pro-collagen 1 standard curve. Screening compounds were typically tested at concentration of 150 and 250 µg/mL. The dose response data for each compound and the different cell lines were obtained by nonlinear regression analysis using Prism 9 software (GraphPad, La Jolla, USA).

SMILES | collagen reduction percentage in comparison to the standard (100 %) (UKE1; 48h, 150 µg) [%] | collagen reduction percentage in comparison to the standard (100 %) (UKE1; 48h, 250 µg) [%] | collagen reduction percentage in comparison to the standard (100 %) (UKE1; 72 h, 150 µg) [%] | collagen reduction percentage in comparison to the standard (100 %) (UKE1; 72 h, 250 µg) [%] | collagen reduction percentage in comparison to the standard (100 %) (GM637; 48h, 150 µg) [%] | collagen reduction percentage in comparison to the standard (100 %) (GM637; 48h, 250 µg) [%] | collagen reduction percentage in comparison to the standard (100 %) (GM637; 72 h, 150 µg) [%] | collagen reduction percentage in comparison to the standard (100 %) (GM637; 72 h, 250 µg) [%] | collagen reduction percentage in comparison to the standard (100 %) (HRO159N; 48h) [%] | collagen reduction percentage in comparison to the standard (100 %) (HRO159N; 72 h) [%] | collagen reduction percentage in comparison to the standard (100 %) (MRCVI; 48h, 150 µg) [%] | collagen reduction percentage in comparison to the standard (100 %) (MRCVI; 48h, 250 µg) [%] | collagen reduction percentage in comparison to the standard (100 %) (MRCVI; 72 h, 150 µg) [%] | collagen reduction percentage in comparison to the standard (100 %) (MRCVI; 72 h, 250 µg) [%]
c1ccc2c(c1)cnn1nnnc21 [Compound 1, Tetrazolor5,1-alphthalazine] | 70 | 85 | 74 | 68 | 127 | 77 | 95 | 92 | 57 | 72 | 87 | 78 | 74 | 61
c1ccc2c(c1)cnn1cnnc21 [Compound 10, 1,2,4-Triazolo[3,4-a]phthalazine] | – | – | – | – | – | – | – | – | – | – | 67 | 52 | 48 | 25
COc1nn2c(C)nnc2c2ccccc12 [Compound 3, 6-Methoxy-3-methyl-1,2,4-triazolo[3,4-a]phthalazine] | 96 | 77 | 71 | 52 | 89 | 50 | 37 | 32 | 82 | 77 | 35 | 11 | 17 | 5
Cc1nnc2c3ccc(C(F)(F)F)cc3cnn12 [Compound 36, 3-Methyl-8-(trifluoromethyl)-[1,2,4]triazolo[3,4-a]phthalazine] | – | – | – | – | – | – | – | – | – | – | 64 | 68 | 36 | 22
Cc1nnc2c3cscc3cnn12 [Compound 16, 3-Methylthieno[3,4-d][1,2,4]triazolo[4,3-b]pyridazine] | 117 | 99 | 82 | 35 | 79 | 62 | 86 | 55 | 79 | 48 | 72 | 43 | 82 | 35
c1nn2nnnc2c2cscc12 [Compound 17, Tetrazolo[1,5-b]thieno[3,4-d]pyridazine] | 102 | 86 | 76 | 59 | 90 | 62 | 103 | 55 | 34 | 4 | 33 | 16 | 35 | 11
CC(C)Oc1nn2nnnc2c2c(Cl)cccc12 [Compound 44, 10-chloro-6-isopropoxytetrazolo[5,1-a]phthalazine] | 122 | 89 | 61 | 65 | 122 | 89 | 61 | 65 | 72 | 79 | – | – | – | –
FC(F)(F)c1nnc2c3ccccc3cnn12 [Compound 5, 3-Trifluoromethyl-1,2,4-triazolo[3,4-a]phthalazine] | 107 | 99 | 94 | 62 | 114 | 89 | 70 | 105 | – | – | 97 | 107 | 56 | 108
